Where two headings read alike, the source gives them in different places.
Tests used:
[1] = tested on: Escherichia coli (E. coli strain N-4156-W.T); assay: Antibacterial potency: E. coli replication, absorbance at 600 nm; assay type: cell-based; settings: 37° C., L.B. medium, O.D. 600 nm
Procedure: A suspension of Escherichia coli (E. coli strain N-4156-W.T, 1% V/V in L.B. medium) is divided into plastic tubes (0.5 ml per tube) and incubated in a shaking water bath at 37° C., in either the absence or the presence of increasing concentrations of gentamicin (0.02-50 μM) and increasing concentrations of (Fms)3-gentamicin (0.02-50 μM). E. coli replication is evaluated by measuring the absorbance at 600 nm. Incubation is terminated when O.D600 nm in the tubes containing no gentamicin reaches a value of 0.6±0.1. Under our assay conditions, native gentamicin inhibited half-maximally E. coli replication at a concentration of 0.22±0.02 μM (0.1 μg/ml).

[2] = rats; Dox 10 μg/g, Fms-Dox 15 μg/g I.P.
Procedure: (§1) The experiment was carried out with a single mice or rat per compound (per metabolic cage) and it was repeated 7 times with rats and twice with mice using the protocol below. The fluorescent feature of doxorubicin enables the observation of its presence in the urine following different modes of administration.
Urine was collected several times after administration and the fluorescence emission was measured by a fluorometer. The urine collected from the untreated groups was used as a blank.
Urine was collected at 1.25, 2.5, 4 and 6 hours after administration and fluorescence intensity was measured in a fluorometer (SPECTRAmax and GEMINI of Molecular Devices Sunnyvale Fluorometer, CA, USA). Since doxorubicin is a fluorescent material, when it absorbs light energy at a wavelength of 488 nm (excitation), it undergoes an electronic state change and instantaneously emits light at 595 nm (emission). The Relative Fluorescence Units (RFU) shown in FIG. 1 indicate the peaks of light emitted at 595 nm resulting from the absorption of Dox at 488 nm.

[3] = Procedure: as §1
The experiments were repeated with mice.

F10.9 melanoma cell line = assay: Inhibition of proliferation of cancer cells in vitro, crystal violet staining; assay type: cell-based; settings: F10.9 melanoma cells, 96 hours, crystal violet staining (FIG. 2); read-out: IC50 (the concentration at which cell growth is inhibited by 50%)
Procedure: The efficacy of native Dox and FMS-Dox on the inhibition of proliferation of cancer cells was tested in vitro with F10.9 melanoma cell line. On day (−1) cells, were seeded in a 24-well plate (5×10^3 cells/ml/well). On day (0), cells were incubated with Dox and FMS-Dox at logarithmic dilutions from 100 μM to 0.001 μM. Survival of cells at 96 hours was determined, using the crystal violet staining method. Optical density (OD) was measured at 620 nm in an ELISA reader. The OD reading was correlated to % viable cells. When the cells were untreated the absorbance was at a maximum. IC50 (the concentration at which cell growth is inhibited by 50%) was determined. The results in FIG. 2 show IC50 values of 0.03 μM and 0.09 μM for native Dox and FMS-Dox, respectively. […] The was confirmed by HPLC analysis whereby the compound found in the growing cell medium after 96 hr corresponded to native doxorubicin.

[4] = tested on: luteinizing hormone (LH) in circulating blood; assay: Effect of GnRH analogs on LH levels in blood of rats (RIA); assay type: in vivo, rat; set-up: LH 180 min: unit not given here
Procedure: The experiment was carried out with 55 female Wistar 8-week old rates, equally distributed into one of the eleven test groups as detailed in the following Table 3:
The compounds were administered either orally (PO) or intraperitoneally (IP) in a molar concentration of 0.4 nmol/rat (equivalent to 0.5 μg/rat of D-Lys^6-GnRH and to 0.6 μg/rat of Fms- or Fmoc-D-Lys^6-GnRH), or of 40 nmol/rat (equivalent in 50 μg/rat of D-Lys^6-GnRH and to 60 μg/rat of Fms- or Fmoc-D-Lys^6-GnRH), in 0.5 ml PBS. Ninety and 180 minutes after administration of the appropriate treatment, blood samples were collected (1 ml), the serum was separated, and the detection of LH levels was carried out by radioimmunoassay (RIA) as previously described (Rahimipour, S., et Al. J. Med. Chem. 2001, 44, 3645-3652).

[5] = tested on: acetylcholine-induced abdominal constriction; assay: Acetylcholine-induced abdominal constriction in mice (antinociceptive activity); assay type: in vivo; settings: for inhibition of acetylcholine-induced abdominal constriction, dose response (FIG. 3): 30 minutes after SC, Fmoc-Met-enkephalin 50 and 25 mg/kg, p<0.05; for inhibition of acetylcholine-induced abdominal constriction, dose response (FIG. 3) / activity after SC or PO administration: Met-enkephalin 50 mg/kg; for antinociceptive activity in the mouse: comparable doses; for antinociceptive activity in the mouse / activity after SC or PO administration: SC or PO; for activity after SC or PO administration: Fmoc-Ala 25 mg/kg
Text: The method used in the experiments herein for evaluating the antinociceptive properties of Fmoc-Met-enkephalin is a standard method for evaluating compounds having analgesic activity such as non-steroidal anti-inflammatory agents, opioids, and other analgesics, and consists in administering acetylcholine I.P. to mice, treating the mice with the test compound and evaluating the inhibition of abdominal constriction induced by the acetylcholine.
Thus, 120 healthy CD-1, Swiss derived, albino male mice (obtained from Charles River Breeding Labs, Wilmington, Mass.) were weighed, examined for health and equally distributed into one of the 12 test groups shown in Table 1.
SC administration was carried out with a standard syrine and needle and given in a volume of 10 ml per kg. Oral administration was performed using a standard curved oval gavage needle and given in a volume of 10 ml per kg. Thirty minutes after administration of the appropriate treatment, acetylcholine (5.5 mg/kg) was injected I.P. The mice were then placed in large plastic boxes and observed for the occurrence of a single abdominal constriction (defined as a wave of construction and elongation passing caudally along the abdominal wall, accompanied by a twisting of the trunk and followed by extension of the hind limbs). […] Acetylcholine-induced abdominal constriction was repeated again at approximately 120 minutes after test compound administration.
Observations included gross evaluation of the skin and fur, eyes and mucous membranes, respiratory, circulatory, autonomic and central nervous system, somatomotor activity and behavioral patterns. Particular attention was directed to observation of tremors, convulsions, salivation, diarrhea, sleep and coma. A non-parametric analysis of quantal data (Fisher exact test) was used to determine statistical significance of results.

Candida albicans = settings: 20 IU; Agar-RPMI plates confluent with Candida albicans, 48 hr at 30° C.; cited from earlier work
[6] = 0.4 nmol/rat (0.5 or 0.6 μg/rat) IP
[7] = 0.4 nmol/rat (0.5 or 0.6 μg/rat) PO
[8] = 40 nmol/rat (50 or 60 μg/rat) PO

Compound: gentamicin [native gentamicin]
- concentration inhibiting half-maximally E. coli replication [1]: 0.1 µg/mL
- IC50 ([1]; read-out: concentration inhibiting half-maximally E. coli replication): 220 ± 20 nM

Compound: COc1cccc2c1C(=O)c1c(O)c3c(c(O)c1C2=O)C[C@@](O)(C(=O)CO)C[C@@H]3O[C@H]1C[C@H](N)[C@H](O)[C@H](C)O1 [native Dox, Doxorubicin]
- absorption following I.P. administration (urine fluorescence) [2]: absorbed
- absorption following I.P. administration (urine fluorescence) ([3]; mice, I.P.): absorbed
- oral absorption (urine fluorescence) ([3]; mouse, in vivo, po): orally nonabsorbed
- IC50 (F10.9 melanoma cell line): 30 nM

Compound: 5-oxo-Pro-His-Trp-Ser-Tyr-(Fms)D-Lys-Leu-Arg-Pro-Gly-NH2 [Fms-D-Lys^6-GnRH]
- LH 90 min [4, 6]: 80 ng/mL
- LH 180 min [4, 6]: 25
- LH 90 min [4, 7]: 0.4 ng/mL
- LH 180 min [4, 7]: 0
- LH 90 min [4, 8]: 80 ng/mL
- LH 180 min [4, 8]: 35
- activity when administered IP [4]: active
- effect of oral administration on LH levels in the blood circulation ([4]; oral, 90 and 180 min after administration): elevation of the LH levels

Compound: (X1)Tyr-Gly-Gly-Phe-Met [Fmoc-Met-Enk]
- # mice abdominal construction ([5]; 6.25 mg/kg SC, 30 minutes): 9/10
- % inhibition ([5]; 6.25 mg/kg SC, 30 minutes): 10%
- # mice abdominal construction ([5]; 6.25 mg/kg SC, 120 minutes): 8/10
- % inhibition ([5]; 6.25 mg/kg SC, 120 minutes): 20%
- # mice abdominal construction ([5]; 12.5 mg/kg PO, 30 minutes): 6/10
- % inhibition ([5]; 12.5 mg/kg PO, 30 minutes): 40%
- # mice abdominal construction ([5]; 12.5 mg/kg PO, 120 minutes): 10/10
- # mice abdominal construction ([5]; 12.5 mg/kg SC, 30 minutes): 7/10
- % inhibition ([5]; 12.5 mg/kg SC, 30 minutes): 30%
- # mice abdominal construction ([5]; 12.5 mg/kg SC, 120 minutes): 8/10
- % inhibition ([5]; 12.5 mg/kg SC, 120 minutes): 20%
- # mice abdominal construction ([5]; 25 mg/kg PO, 30 minutes): 6/10
- % inhibition ([5]; 25 mg/kg PO, 30 minutes): 40%
- # mice abdominal construction ([5]; 25 mg/kg PO, 120 minutes): 10/10
- # mice abdominal construction ([5]; 25 mg/kg SC, 30 minutes): 6/10
- % inhibition ([5]; 25 mg/kg SC, 30 minutes): 40%
- # mice abdominal construction ([5]; 25 mg/kg SC, 120 minutes): 6/10
- % inhibition ([5]; 25 mg/kg SC, 120 minutes): 40%
- activity at 120 minutes after drug administration ([5]; 25 mg/kg SC, 120 minutes): active
- # mice abdominal construction ([5]; 50 mg/kg PO, 30 minutes): 8/10
- % inhibition ([5]; 50 mg/kg PO, 30 minutes): 20%
- # mice abdominal construction ([5]; 50 mg/kg PO, 120 minutes): 6/10
- % inhibition ([5]; 50 mg/kg PO, 120 minutes): 40%
- # mice abdominal construction ([5]; 50 mg/kg SC, 30 minutes): 5/10
- % inhibition ([5]; 50 mg/kg SC, 30 minutes): 50%
- # mice abdominal construction ([5]; 50 mg/kg SC, 120 minutes): 9/10
- % inhibition ([5]; 50 mg/kg SC, 120 minutes): 10%
- inhibition of acetylcholine-induced abdominal constriction (statistical significance) ([5]; 50 and 25 mg/kg SC and 25 and 12.5 mg/kg PO, 30 minutes): statistically significant inhibition
- inhibition of acetylcholine-induced abdominal constriction, dose response (FIG. 3) [5]: statistically significant
- antinociceptive activity in the mouse [5]: significant antinociceptive activity
- signs of CNS depression or sedation ([5]; mice, during the experimental period): did not show signs of CNS depression or sedation
- statistically significant activity compared to Fmoc-Ala ([5]; oral administration, any dose, 120 minutes): did not show statistically significant activity
- inhibition of acetylcholine-induced abdominal constriction after oral administration (FIG. 4) ([5]; orally, 25 and 12.5 mg/kg after 30 minutes and 50 mg/kg after 120 minutes): statistically significant inhibition

Compound: Tyr-Gly-Gly-Phe-Met [Met-Enk, reference compound]
- # mice abdominal construction ([5]; 50 mg/kg PO, 30 minutes): 9/10
- % inhibition ([5]; 50 mg/kg PO, 30 minutes): 10%
- # mice abdominal construction ([5]; 50 mg/kg PO, 120 minutes): 9/10
- % inhibition ([5]; 50 mg/kg PO, 120 minutes): 10%
- # mice abdominal construction ([5]; 50 mg/kg SC, 30 minutes): 8/10
- % inhibition ([5]; 50 mg/kg SC, 30 minutes): 20%
- # mice abdominal construction ([5]; 50 mg/kg SC, 120 minutes): 10/10
- inhibition of acetylcholine-induced abdominal constriction, dose response (FIG. 3) [5]: not significantly active
- activity after SC or PO administration [5]: not active
- antinociceptive activity in the mouse [5]: neither Met-enkephalin nor Fmoc-Ala is active

Compound: C[C@H](NC(=O)OCC1c2ccccc2-c2ccccc21)C(=O)O [Fmoc-Ala, reference compound]
- # mice abdominal construction ([5]; 25 mg/kg PO, 30 minutes): 10/10
- # mice abdominal construction ([5]; 25 mg/kg PO, 120 minutes): 8/10
- % inhibition ([5]; 25 mg/kg PO, 120 minutes): 20%
- # mice abdominal construction ([5]; 25 mg/kg SC, 30 minutes): 10/10
- # mice abdominal construction ([5]; 25 mg/kg SC, 120 minutes): 10/10
- activity after SC or PO administration [5]: not active
- antinociceptive activity in the mouse [5]: neither Met-enkephalin nor Fmoc-Ala is active

Compound: C[C@@H]1[C@H](O)[C@@H](C)/C=C/C=C/C=C/C=C/C=C/C=C/C=C/[C@H](O[C@@H]2O[C@H](C)[C@@H](O)[C@H](N)[C@@H]2O)C[C@@H]2O[C@](O)(C[C@@H](O)C[C@@H](O)[C@H](O)CC[C@@H](O)C[C@@H](O)CC(=O)O[C@H]1C)C[C@H](O)[C@H]2C(=O)O [native Amphotericin B, Amphotericin B]
- clear zone diameter (Candida albicans): 1.5 cm

Compound: 5-oxo-Pro-His-Trp-Ser-Tyr-(Fmoc)D-Lys-Leu-Arg-Pro-Gly-NH2 [Fmoc-D-Lys^6-GnRH]
- LH 90 min [4, 6]: 50 ng/mL
- LH 180 min [4, 6]: 17
- LH 90 min [4, 7]: 0 ng/mL
- LH 180 min [4, 7]: 0
- LH 90 min [4, 8]: 0 ng/mL
- LH 180 min [4, 8]: 0
- activity when administered IP [4]: active
